Some test systems named below: HCC-2998 colon; BT-549 breast; SR leukemia; NCI-H460 lung; CCRF-CEM leukemia; RPMI-8226 leukemia; MALME-3M melanoma; HCT-116 colon; 786-0 renal; MDA-MB-231 breast.
What all share (experiment): inhibition of tumour cell growth, NCI panel, 48 h

From PubChem BioAssay (NCI) come the findings set out here.

The structures appear in SMILES notation.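 Compound exposure: 48 hours, 5 concentrations, 96-well plates. GI50 is the concentration that inhibits growth by half. At the TGI there is no net growth.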

Consider `Cc1cc(NCCCNc2ccnc3cc(Cl)ccc23)nc(Nc2ccc(C(=O)N3CCCCC3)cc2)n1`, for which the GI50 is 2.47 µM with HCC-2998 colon; 2.31 µM with BT-549 breast; 1.72 µM in the test with SR leukemia; 2.7 µM in the test on NCI-H460 lung; 2.48 µM in the test on CCRF-CEM leukemia; 2.27 µM with RPMI-8226 leukemia. Further, the GI50 with MALME-3M melanoma was 2.34 µM; in the test on HCT-116 colon, 2.22 µM; in the test on 786-0 renal it was 1.83 µM. Moreover, the TGI stood at 6.65 µM with HCC-2998 colon; 5.43 µM in the test with BT-549 breast; 4.24 µM in the test with SR leukemia; 7.63 µM in the test on NCI-H460 lung; 8.4 µM with CCRF-CEM leukemia; 5.66 µM in the test with RPMI-8226 leukemia. For the same molecule, the results for the TGI in the test on MALME-3M melanoma, with HCT-116 colon and in the test on 786-0 renal were 4.15 µM, 5.83 µM and 3.72 µM, respectively.

Regarding `Nc1ncnc2c1ncn2C1OC(CO)CC1O` (stereo unspecified), the TGI is 43.7 µM in the test with HCC-2998 colon; 92 µM in the test on BT-549 breast; greater than 100 µM in the test with SR leukemia; greater than 100 µM with CCRF-CEM leukemia; greater than 100 µM in the test with HCT-116 colon; 45.8 µM in the test on 786-0 renal. Also, in the test with MDA-MB-231 breast, the TGI was 42.7 µM.

Regarding `O=C1C2=C(C(=O)c3c(O)ccc(O)c31)N(c1cccnc1)Cc1ccccc1O2`, the GI50 was 1.52 µM in the test with HCC-2998 colon; 0.392 µM in the test with BT-549 breast; 2.6 µM in the test on NCI-H460 lung; 0.0878 µM in the test with CCRF-CEM leukemia; 0.386 µM in the test with RPMI-8226 leukemia; 0.164 µM in the test on MALME-3M melanoma. Further, the values for the GI50 with HCT-116 colon, in the test on 786-0 renal and in the test on MDA-MB-231 breast were 0.0923 µM, 0.211 µM and 0.265 µM, respectively. Besides, the TGI stood at 3.23 µM in the test with HCC-2998 colon; 1.24 µM in the test with BT-549 breast; 6.78 µM in the test on NCI-H460 lung; 0.513 µM with CCRF-CEM leukemia; 2.03 µM with RPMI-8226 leukemia; 0.385 µM in the test on MALME-3M melanoma. Also, the TGI in the test with HCT-116 colon was 0.324 µM; with 786-0 renal, 0.605 µM; with MDA-MB-231 breast it was 0.876 µM.

Take `COc1cc(-c2nn(-c3ccc(NC(=O)Nc4ccc(Cl)c(C(F)(F)F)c4)cc3)cc2-c2ccncc2)ccc1Cl`: the GI50 was 1.64 µM in the test with HCC-2998 colon; 2.01 µM in the test on BT-549 breast; 1.71 µM with NCI-H460 lung; 1.42 µM with CCRF-CEM leukemia; 1.14 µM in the test with HCT-116 colon; 1.8 µM in the test on 786-0 renal. Also, the GI50 in the test with MDA-MB-231 breast was 1.76 µM. In addition, the TGI with HCC-2998 colon came out at 3.1 µM; in the test on BT-549 breast, 4.57 µM; with NCI-H460 lung, 3.62 µM; in the test with CCRF-CEM leukemia, 7.01 µM; in the test with HCT-116 colon it was 2.53 µM; in the test on 786-0 renal, 4.27 µM. In the test with MDA-MB-231 breast, the TGI stood at 3.82 µM.

`O=S1(=O)OCc2ccccc21`: the TGI with HCC-2998 colon, with BT-549 breast, in the test with NCI-H460 lung, with CCRF-CEM leukemia, with RPMI-8226 leukemia and with MALME-3M melanoma was greater than 100 µM each time. The TGI with HCT-116 colon, in the test on 786-0 renal and in the test on MDA-MB-231 breast was greater than 100 µM throughout.

With `O=C1/C(=N/N=C(c2ccccc2)c2ccccc2)c2ccccc2-c2ccccc21`, the TGI with BT-549 breast, with SR leukemia, in the test with NCI-H460 lung, with MALME-3M melanoma, in the test on HCT-116 colon and in the test on 786-0 renal was greater than 100 µM throughout. Also, in the test on MDA-MB-231 breast, the TGI is greater than 100 µM.

Regarding `Cc1c(C)n(CC(O)CNC2CCCCC2C)c2ccccc12` (stereo unspecified), the GI50 in the test on HCC-2998 colon is 3.03 µM; with BT-549 breast, 16 µM; in the test with SR leukemia it was 12.4 µM; in the test on NCI-H460 lung, 15.7 µM; in the test with RPMI-8226 leukemia, 9.48 µM; in the test with MALME-3M melanoma, 14.2 µM. The GI50 with HCT-116 colon is 12 µM; with 786-0 renal, 12.5 µM; in the test with MDA-MB-231 breast, 6.44 µM. In addition, the TGI worked out at 10.5 µM with HCC-2998 colon; 30.1 µM in the test on BT-549 breast; 34.1 µM with SR leukemia; 31 µM in the test on NCI-H460 lung; 28.6 µM in the test with RPMI-8226 leukemia; 30.1 µM in the test on MALME-3M melanoma. Moreover, the TGI in the test with HCT-116 colon came to 24.4 µM; in the test with 786-0 renal, 25.6 µM; in the test with MDA-MB-231 breast, 20.5 µM.

In the case of `S=P(C1CCCCC1)(C1CCCCC1)C(c1cccnc1)N1CCCC1` (stereo unspecified), the TGI in the test with BT-549 breast was determined as 35.6 µM; in the test with SR leukemia, 44.7 µM; in the test on NCI-H460 lung, 50.7 µM; with CCRF-CEM leukemia, 36.3 µM; in the test on RPMI-8226 leukemia, 38.3 µM; in the test on MALME-3M melanoma, 39.9 µM. Besides, the TGI with HCT-116 colon amounted to 34.2 µM; in the test on 786-0 renal, 31.5 µM; in the test on MDA-MB-231 breast, 39.1 µM.

Consider `CN(C)C(=O)C(NCCO)c1ccccc1` (stereo unspecified), for which the TGI was greater than 100 µM in the test with HCC-2998 colon; greater than 100 µM with BT-549 breast; greater than 100 µM in the test on NCI-H460 lung; 59.7 µM in the test on RPMI-8226 leukemia; greater than 100 µM in the test on HCT-116 colon; greater than 100 µM in the test with 786-0 renal. Besides, the TGI with MDA-MB-231 breast was greater than 100 µM.

Regarding `COc1ccc2nc(-c3ccc(Cl)cc3)cc(-c3nnc(SCC(=O)Nc4ccc(/C(C)=N\O)cc4)o3)c2c1`, the GI50 in the test with HCC-2998 colon was 2.98 µM; in the test with BT-549 breast it was 3.7 µM; with SR leukemia, 1.72 µM; in the test with NCI-H460 lung, 1.1 µM; in the test on CCRF-CEM leukemia it was 2.49 µM; in the test on RPMI-8226 leukemia it was 2.18 µM. In addition, the GI50 in the test on MALME-3M melanoma is 1.28 µM; in the test with 786-0 renal, 1.02 µM; in the test on MDA-MB-231 breast, 2.05 µM. The TGI is 31.5 µM with HCC-2998 colon; 18.9 µM in the test on BT-549 breast; greater than 50 µM with SR leukemia; 2.32 µM in the test with NCI-H460 lung; greater than 50 µM in the test on CCRF-CEM leukemia; greater than 50 µM in the test on RPMI-8226 leukemia. Moreover, the TGI is 3.97 µM in the test with MALME-3M melanoma, 3.04 µM in the test with 786-0 renal and 8.34 µM with MDA-MB-231 breast.

As to `COc1ccc2c3c(ccc2c1)NC(C(=O)O)CC3` (stereo unspecified), the TGI with HCC-2998 colon was greater than 100 µM; in the test with BT-549 breast, greater than 100 µM; in the test with SR leukemia, 58.4 µM; with NCI-H460 lung it was greater than 100 µM; in the test on RPMI-8226 leukemia it was 54.1 µM; with MALME-3M melanoma, greater than 100 µM. Moreover, the TGI in the test with HCT-116 colon, in the test with 786-0 renal and in the test with MDA-MB-231 breast was greater than 100 µM throughout.

With `Nc1nc2ccccc2c2[nH]c3ccccc3c12`, the GI50 in the test on BT-549 breast was 1.26 µM; with SR leukemia, 0.64 µM; in the test with MALME-3M melanoma, 1.61 µM; in the test with HCT-116 colon, 0.499 µM; in the test with 786-0 renal, 1.12 µM; with MDA-MB-231 breast, 1.22 µM. Moreover, the TGI in the test with BT-549 breast was found to be 2.58 µM; with SR leukemia, 4.8 µM; in the test on MALME-3M melanoma, 3.19 µM; with HCT-116 colon, 1.83 µM; in the test on 786-0 renal, 2.61 µM; in the test with MDA-MB-231 breast, 2.57 µM.
